This is an account of results in patent US6545155B2, “Fused heteroaromatic glucokinase activators” (Hoffmann-La Roche Inc., priority 2000, dated 2003).

The test relates to C57BL/6J mice. Briefly: Glucokinase activator in vivo screen protocol (blood glucose after oral dosing). Particulars: administered orally, 50 mg/kg, C57BL/6J mice fasted two hours, blood glucose vs vehicle over six hours post dose. The procedure: (Glucokinase Activator in Vivo Screen Protocol
C57BL/6J mice are orally dosed via gavage with Glucokinase (GK) activator at 50 mg/kg body weight following a two hour fasting period. Blood glucose determinations are made five times during the six hour post-dose study period.
Mice (n=6) are weighed and fasted for a two hour period prior to oral treatment. GK activators are formulated at 6.76 mg/ml in Gelucire vehicle (Ethanol:Gelucire44/14:PEG400q.s. 4:66:30 v/w/v. Mice are dosed orally with 7.5 μL formulation per gram of body weight to equal a 50 mg/kg dose. Immediately prior to dosing, a pre dose (time zero) blood glucose reading is acquired by snipping off a small portion of the animals tail (˜1 mm) and collecting 15 μL blood into a heparinized capillary tube for analysis. Following GK activator administration, additional blood glucose readings are taken at 1, 2, 4, and 6 hours post dose from the same tail wound. Results are interpreted by comparing the mean blood glucose values of six vehicle treated mice with six GK activator treated mice over the six hour study duration.

On to `CS(=O)(=O)c1ccc([C@@H](CC2CCCC2)C(=O)Nc2nc3ccccc3s2)cc1Cl` [Example 19, N-Benzothiazol-2-yl-2(R)-(3-chloro-4-methanesulfonyl-phenyl)-3-cyclopentyl-propionamide], for which the “glucokinase activator in vivo activity” value is reported as “excellent glucokinase activator in vivo activity”.

Regarding `CS(=O)(=O)c1ccc(C(CC2CCCC2)C(=O)Nc2nc3ccccc3[nH]2)cc1Cl` (stereo not drawn) [Example 20, N-(1H-Benzoimidazol-2-yl)-2-(3-chloro-4-methanesulfonyl-phenyl)-3-cyclopentyl-propionamide], the “glucokinase activator in vivo activity” value is on record as “excellent glucokinase activator in vivo activity”.

Consider `CS(=O)(=O)c1ccc(C(CC2CCCC2)C(=O)Nc2ccc3ccccc3n2)cc1Cl` (stereo not drawn) [Example 22, 2-(3-Chloro-4-methanesulfonyl-phenyl)-3-cyclopentyl-N-quinolin-2-yl-propionamide], for which the “glucokinase activator in vivo activity” value was “excellent glucokinase activator in vivo activity”.
